Reference: the OligoGym collection
Several values for one entry are separate records, joined by “and”; a condition that tells them apart may be missing. Equal entries are not always repeated. After the bases stand the sugars from the 5' end (letter, count) and the backbone: PS all phosphorothioate, else s phosphorothioate and o phosphodiester by linkage. Methylation of C is not given here. k = constrained ethyl (cEt); d = 2'-deoxy (DNA)

Molecular target: MALAT1
Details: ASO, A431, 0.005 µM

Point of comparison: ACAGTAGGTATAGTTT (sugars k3 d10 k3, PS), target mRNA inhibition 24%. Against it:
- AACCGTAACAGGCCAC (sugars k3 d10 k3, PS) — higher, 50%
- AACCTTCATGACCCTA (sugars k3 d10 k3, PS) — lower, 20%
- AACGAAGAGATACCTG (sugars k3 d10 k3, PS) — lower, 12%
- AACTAAATCATTGGGA (sugars k3 d10 k3, PS) — lower, -1%
- AACTCCAAGAACTAGC (sugars k3 d10 k3, PS) — higher, 30%
- AACTCCACAGCTCTTA (sugars k3 d10 k3, PS) — higher, 41%
- AAGACCTCGACACCAT (sugars k3 d10 k3, PS) — higher, 44%
- AAGAGTAACTACCAGC (sugars k3 d10 k3, PS) — lower, 6%
- AAGATCGCCTTCAAAT (sugars k3 d10 k3, PS) — higher, 49%
- AAGATGCTAGCTTGGC (sugars k3 d10 k3, PS) — the same, 24%
- AAGCCAAGCCGCCTGC (sugars k3 d10 k3, PS) — higher, 29%
- AAGCGAATGGCTTTGT (sugars k3 d10 k3, PS) — lower, 6%
- AAGCGAGTTCAAGTGG (sugars k3 d10 k3, PS) — lower, 15%
- AAGGATCCAAGCTACT (sugars k3 d10 k3, PS) — lower, 8%
- AAGGTTACCATAAGTA (sugars k3 d10 k3, PS) — higher, 46%
- AAGTCTCGGGCTGCAG (sugars k3 d10 k3, PS) — lower, 4%
- AAGTTACATGTTCCCA (sugars k3 d10 k3, PS) — higher, 39%
- AATAAGCACTTATCCC (sugars k3 d10 k3, PS) — higher, 31%
- AATACTTGTCTTAGCT (sugars k3 d10 k3, PS) — higher, 41%
- AATAGTACTATAGCAT (sugars k3 d10 k3, PS) — lower, 15%
- AATATCTTAGTAACCT (sugars k3 d10 k3, PS) — lower, 19%
- AATCAAGTCAAGCTCC (sugars k3 d10 k3, PS) — lower, 14%
- AATCACAAATACGACT (sugars k3 d10 k3, PS) — lower, 23%
- AATCACCTACAACTTT (sugars k3 d10 k3, PS) — higher, 26%
- AATCACCTTCGGTTTA (sugars k3 d10 k3, PS) — lower, -1%
- AATCCCCTAGGGAAGG (sugars k3 d10 k3, PS) — lower, 5%
- AATGGAGGTATGACAT (sugars k3 d10 k3, PS) — lower, 5%
- AATTAATGCTAGTCCT (sugars k3 d10 k3, PS) — lower, 16%
- AATTACTCTTGATCTT (sugars k3 d10 k3, PS) — higher, 51%
- ACAAACTGCTTACAGA (sugars k3 d10 k3, PS) — lower, 17%
- ACAAGTTACATGTTCC (sugars k3 d10 k3, PS) — lower, 21%
- ACAATCAAGTCAAGCT (sugars k3 d10 k3, PS) — lower, 15%
- ACACCCGGAAATCGGC (sugars k3 d10 k3, PS) — lower, 8%
- ACAGATTAGTAGTCAA (sugars k3 d10 k3, PS) — lower, 9%
- ACATGCCAGTTACTCC (sugars k3 d10 k3, PS) — higher, 39%
- ACCAAATTGCACTCGC (sugars k3 d10 k3, PS) — higher, 40%
- ACCAATCCCAACCGTA (sugars k3 d10 k3, PS) — lower, 18%
- ACCACAACAATTTAGA (sugars k3 d10 k3, PS) — lower, -10%
- ACCACCACCTGGAATG (sugars k3 d10 k3, PS) — lower, 22%
- ACCACCTGGAATGGCC (sugars k3 d10 k3, PS) — lower, 15%
- ACCCACCAAAGACCTC (sugars k3 d10 k3, PS) — lower, 9%
- ACCCAGCATTACAGTT (sugars k3 d10 k3, PS) — lower, 8%
- ACCCCTGACTTTCTGG (sugars k3 d10 k3, PS) — lower, 18%
- ACCGATTATGGATCAT (sugars k3 d10 k3, PS) — higher, 36%
- ACCGGAATTCGATCAC (sugars k3 d10 k3, PS) — higher, 35%
- ACCGTTTTTCAGCTTC (sugars k3 d10 k3, PS) — lower, -30%
- ACCTGGAATGGCCAGC (sugars k3 d10 k3, PS) — lower, 21%
- ACCTTAGGATAATAGC (sugars k3 d10 k3, PS) — higher, 39%
- ACCTTGAGTCATTTGC (sugars k3 d10 k3, PS) — higher, 66%
- ACGAAACTCCCCCATT (sugars k3 d10 k3, PS) — higher, 36%
- ACGGAGAACAACTCGC (sugars k3 d10 k3, PS) — lower, 1%
- ACTAAGCTACTATATT (sugars k3 d10 k3, PS) — higher, 39%
- ACTATATTTAAGGCCT (sugars k3 d10 k3, PS) — higher, 40%
- ACTATTTCTCCAGGAC (sugars k3 d10 k3, PS) — lower, 20%
- ACTCAGCCTTTATCAC (sugars k3 d10 k3, PS) — lower, -5%
- ACTCCAAGAACTAGCA (sugars k3 d10 k3, PS) — lower, 11%
- ACTCGCATCACCGGAA (sugars k3 d10 k3, PS) — lower, 15%
- ACTCTAAGATTGTAAG (sugars k3 d10 k3, PS) — higher, 25%
- ACTCTTGATCTTGAAT (sugars k3 d10 k3, PS) — higher, 43%
- ACTGTAAACCTGTGGT (sugars k3 d10 k3, PS) — lower, -6%
- ACTTACTGGTTTAAGT (sugars k3 d10 k3, PS) — lower, -3%
- ACTTTTAATCATACTC (sugars k3 d10 k3, PS) — lower, 21%
- AGAAACCTACAACACC (sugars k3 d10 k3, PS) — lower, -6%
- AGAACTAGCACCTGCA (sugars k3 d10 k3, PS) — lower, 15%
- AGAACTAGTGGTTCCC (sugars k3 d10 k3, PS) — lower, -3%
- AGAACTGCTCTAGTTT (sugars k3 d10 k3, PS) — lower, -6%
- AGACGGAGAACAACTC (sugars k3 d10 k3, PS) — lower, -14%
- AGATTGTAAGCATTTA (sugars k3 d10 k3, PS) — higher, 42%
- AGCACATCATGCTATT (sugars k3 d10 k3, PS) — higher, 26%
- AGCACTTATCCCTAAC (sugars k3 d10 k3, PS) — higher, 40%
- AGCAGAAGCCCCTGCG (sugars k3 d10 k3, PS) — lower, -1%

For AAGCACCGCTTGAGAT (sugars k3 d10 k3, PS), the target mRNA inhibition was 8% and 13%.
For AATGCTAGTCCTCAGG (sugars k3 d10 k3, PS), the target mRNA inhibition was 57% and 78%.
With ACACTTCTCTTGACCT (sugars k3 d10 k3, PS) the target mRNA inhibition was 60% and 44% and 50%.
In the case of ACCGCTTGAGATTTGG (sugars k3 d10 k3, PS), the target mRNA inhibition is reported as 32% and 41%.
For ACCTTCTAACTTCTGC (sugars k3 d10 k3, PS), the target mRNA inhibition was 64% and 42%.
For ACGAAACATTGGCACA (sugars k3 d10 k3, PS), the target mRNA inhibition was 62% and 40%.
With ACGAACTGCTGCTTGC (sugars k3 d10 k3, PS) the target mRNA inhibition was 66% and 49% and 50%.
AGAGTAACTACCAGCC (sugars k3 d10 k3, PS) was tested, and the target mRNA inhibition was 55% and 76%.
AGATTCCGTAACTTTA (sugars k3 d10 k3, PS) was tested, and the target mRNA inhibition was 78% and 92%.
